Experimental data from patent publication US10517913B2, “Composition for prevention, alleviation, or treatment of peripheral neuropathy comprising Lithospermi Radix extract as an effective component” (priority 2015, dated 2019).

How the values were obtained:
[1] = tested on: human lung cancer cells (A549); assay: Drug-herb interaction with oxaliplatin cytotoxicity (Ez-Cytox), A549; format: cell-based; details: oxaliplatin 0 to 100 μg/ml alone (No treat), 72 hours
Procedure: (§1) A549 and HCT116 cells were purchased from the ATCC (USA). They were cultured in a 100 mm cell culture dish in an incubator at 37° C., 5% CO2, using an RPMI1640 basal medium supplemented with 10% heat inactivated FBS, 100 unit/ml penicillin, and 100 μg/ml streptomycin, and then used for in vitro tests. The basal medium, serum, and other additives were purchased from the Thermo Fisher Scientific.
(§2) Specifically, human lung cancer cells (A549) and human colon cancer cells (HCT116) were cultured according to [Materials and Methods 3-3]. The cells were plated in a 96-well culture dish at 5,000 cells per well. After 24 hours, the cells were simultaneously treated with serially diluted oxaliplatin (0 to 100 μg/ml) and the Lithospermi Radix extract (0(PBS), 10, 30, 100 μg/ml) prepared according to [Materials and Methods 1]. The cell only treated with oxaliplatin was served as a negative control. After 72 hours, the cell viability (%) was measured using Ez-Cytox assay kit. The rate of cell death (% death) caused by oxaliplatin was expressed by (100−cell viability (%)).

[2] = tested on: human colon cancer cells (HCT116); assay: Drug-herb interaction with oxaliplatin cytotoxicity (Ez-Cytox), HCT116; format: cell-based; details: oxaliplatin 0 to 100 μg/ml alone (No treat), 72 hours
Procedure: as §1, §2

PC-12 cells = assay: Neurite outgrowth assay kit (NS225), qualitative analysis; format: cell-based; details: 200 nM oxaliplatin, NGF 100 ng/ml, 48 hours
Procedure: PC-12 was purchased from the ATCC (USA). The cells were cultured in a 100 mm cell culture dish coated with collagen type I in an incubator at 37° C., 5% CO2, using a DMEM basal medium supplemented with 5% non-heat inactivated fetal bovine serum (FBS), 10% heat inactivated horse serum (HS), 100 unit/ml penicillin, and 100 μg/ml streptomycin. The basal medium, sera, and other additives were purchased from the Thermo Fisher Scientific.
The neuroprotective effect of the Lithospermi Radix extract of the present invention was determined using a neurite outgrowth analysis kit (NS225, Millipore) with 1 μm pore-sized membrane.
Specifically, PC-12 was cultured according to [Materials and Methods 3-1] for 72 hours in a DMEM low serum-differentiation medium supplemented with 1% horse serum, 100 unit/ml penicillin, 100 μg/ml streptomycin, and 100 ng/ml nerve growth factor (NGF). The membrane with 1 μm pores was coated by immersing it in a 24-well plate containing a 10 μg/ml collagen solution in an amount of 400 μl/well for 2 hours at 37° C. The collagen-coated membrane was transferred to a well containing a 600 μl of differentiation medium, and then, the differentiated PC-12 cells for 72 hours were plated at 75,000 cells/100 μl/membrane. The cells were treated with 200 nM oxaliplatin to induce neurotoxicity. […]

[3] = tested on: dorsal root ganglion (DRG) neurons of peripheral neuropathic animals induced by oxaliplatin; assay: Morphological cell analysis of dorsal root ganglion neurons; format: in vivo, C57BL/6 mice; details: oxaliplatin 10 mg/kg
Source text: In the present invention, an animal model having peripheral neuropathy was induced by oxaliplatin. Eight-week old male C57BL/6 mice were purchased from the OrientBio. Following 1 week acclimation period in a cage in an animal test room, the base line (BL) of responses of experimental animals to 3 times of mechanical stimulations applied to the right hind footpad of the animal using von Frey filament hair. Then, the animals were divided into different groups (N=8 animals/group). Peripheral neuropathy was induced by injection of 5 mg/kg oxaliplatin through tail veins of animals (once a week, 2 times for 2 weeks, i.e., 10 mg/kg oxaliplatin in total). Oxaliplatin was purchased from the LC Laboratories.
The specimens were prepared to histologically determine the protective effect of the Lithospermi Radix extract (WLR) against neuronal damage in peripheral neuropathic animals induced by oxaliplatin. Specifically, the animal was anaesthetized by intraperitoneal injection of sodium pentobarbital (50 mg/kg), and then, blood was removed by perfusion of 0.9% physiological saline through the aorta via left ventricle. Following fixation by perfusion of 4% paraformaldehyde solution buffered with 0.1 M phosphate, the 4th to 6th lumbar spinal cords, dorsal root ganglia, and the hind footpad skins were removed. The tissues were further fixed in the same fixation solution as above. The paraffin-embedded tissues were sectioned at a 4 μm thickness. The slices were mounted on a glass slide, dried, and then, kept at room temperature until use.
Dorsal root ganglions were cut out, sectioned into slices with 4 μm thickness and then, subjected to Azan-Mallory trichrome staining. The nucleoli in the stained slice were examined under an optical microscope. Among the neurons having discernible nucleoli, the number of neurons having eccentric nucleoli or multinucleolated nucleus was expressed as a percentage of the total neurons in a viewing area.
Specifically, peripheral neuropathy was induced in male C57BL/6 mice by oxaliplatin (10 mg/kg) according to [Materials and Methods 4]. After that, the mice were orally administered 6 times per week with 250 mg/kg of a Lithospermi Radix extract (WLR) prepared in [Materials and Methods 1] or 0.5% carboxymethyl cellulose (CMC) as a negative control. In addition, 100 mg/kg amifostine was intraperitoneally administered 2 times per week as a positive control. After drug administration for 2 weeks, dorsal root ganglion (DRG) was cut out according to [Materials and Methods 6-1]. Using the obtained specimen, morphological change of nucleus and nucleoli in the dorsal root ganglion (DRG) neurons was observed according to [Materials and Methods 6-4].

O=C1[O][Pt]2([NH][C@@H]3CCCC[C@H]3[NH]2)[O]C1=O [oxaliplatin]
growth of cancer cells [1]: inhibited | growth of cancer cells [2]: inhibited | Nerve growth factor-induced neurite growth (PC-12 cells): inhibited | frequency of DRG neurons having eccentric nucleoli [3]: increased | frequency of DRG neurons having multinucleolated nucleus [3]: increased
